Measured values published in article PMC5583658, “6,7-dimethoxy-1,2,3,4-tetrahydro-isoquinoline-3-carboxylic acid attenuates heptatocellular carcinoma in rats with NMR-based metabolic perturbations” (Future Science OA, 2017).

How the values were obtained:
Format in all cases: in vivo, albino Wistar rats
[1] = tested on: diethylnitrosamine-induced hepatocarcinogenic rats; assay: 1H-NMR-based serum metabolic profiling; settings: rat serum; DEN+5-FU 10 mg/kg intraperitoneally
Method: (§1) All animals were randomly divided into five groups of six animals each. Drugs were suspended in 0.25% CMC, subjected to 28 days’ treatment orally and divided as follows: Group I: 0.25% CMC (2 ml/kg), Group II: DEN (8 mg/kg, intraperitoneally), Group III: DEN+5-fluorouracil (5-FU, 10 mg/kg, intraperitoneally), Group IV: DEN+M1 (50 mg/kg, orally) and Group V: DEN+M1 (100 mg/kg, orally). The procedure to induce HCC was adopted from a paper by Song et al. where it is shown that DEN produces HCC at 8 mg/kg intraperitoneal injection for 28 days to albino Wistar rats. After initial 1 week of adaptive inhabitation, all rats of group II–V were administered with DEN (8 mg/kg, intraperitoneally) for 28 days. After 28 days, 5-FU and M1 were given for 15 days as mentioned above for group III–V. At the end of the experimental period, animals were sacrificed by cervical decapitation and livers were dissected out immediately, rinsed in ice cold saline and stored at -20°C for further studies. The serum was collected, processed and stored for further analysis.
All serum samples were thawed at room temperature, 250 μl of serum was taken and mixed with 250 μl of 0.9% saline sodium-phosphate buffer of strength 50 mM, pH 7.4 prepared in D2O. Then, the samples were centrifuged at 10,000 rpm for 5 min to remove any precipitates before acquiring the NMR data. A total 400 μl of the supernatant sample was used in 5 mm NMR tubes (Wilmad Glass, USA) for data acquisition with a co-axial insert containing the known concentration of TSP (sodium salt of 3-trimethylsilyl-(2,2,3,3-d4)-propionic acid) i.e. 0.1% was used as external standard reference to aid metabolite quantification for NMR experiment. Deuterium oxide (D2O; as a co-solvent and to provide a deuterium field/frequency lock) and sodium salt of trimethylsilylpropionic acid-d4 (TSP) used for NMR experiments, were purchased from Sigma-Aldrich (RI, USA).
All NMR spectra were recorded at 298 K on Bruker Biospin Avance-III 800 MHz NMR spectrometer operating at proton frequency of 800.21 MHz, equipped with CryoProbe and an actively shielded gradient unit with a maximum gradient-strength output of […]. The raw NMR data were processed in Topspin-2.1 (Bruker NMR data Processing Software). For each serum sample, one-dimensional ^1H-NMR and diffusion edited ^1H NMR spectra were recorded using the Carr–Purcell–Meiboom–Gill (CPMG) pulse sequence (cpmgpr1d, standard Bruker pulse program) with pre-saturation of the water peak through irradiating it continuously during the recycle delay (RD) of 5 sec, and the bipolar pulse pair longitudinal eddy current delay (BPP-LED) sequence, respectively. Each CPMG spectrum consisted of the accumulation of 128 scans and lasted for approximately 15 minutes. To remove broad signals from triglycerides, proteins, cholesterols and phospholipids, a total spin–spin relaxation time of 60 ms (n = 300 and 2τ=[…]) with a line broadening factor of 0.3 Hz was applied. For diffusion edited (DE)^1H NMR pulse sequence, the square gradients of 70% of the maximum gradient strength (56 G/cm) and 2 ms duration (followed by a delay of 200 μs to allow for the decay of eddy currents) were used. Diffusion time of 120 ms was used to attenuate the signals from low molecular weight compounds without affecting the lipid signals. All the spectra were processed using Topspin-2.1 (Bruker NMR data Processing Software) using standard Fourier Transformation (FT) procedure following manual phase and baseline-correction. Prior to FT, each FID was zero-filled to 4096 data points and a sine-bell apodisation function was applied. After FT, the chemical shifts were referenced internally to methyl peak of L-lactate (at δ=1.33 ppm). All recorded spectra were visually inspected for acceptability and subjected to multivariate statistical analysis to identify the altered metabolic pattern. […]

[2] = tested on: diethylnitrosamine-induced hepatocarcinogenic rats; assay: Bilirubin and biliverdin in liver of DEN-induced HCC rats
Method: as §1
(§2) Liver function biomarkers like aspartate aminotransferase (AST), alanine aminotransferase (ALT) were also measured in serum using commercially available kit from Ebra Diagonesis Pvt Ltd, Germany. The oxidative parameters like superoxide dismutase (SOD), thiobarbituric acid reactive substances (TBARS), protein carbonyl (PC), SOD [14], tissue catalase (CAT) and glutathione (GSH) levels were estimated in liver tissue in the similar experiment. The total protein content of each sample was measured using the Bradford reagent and bovine serum albumin was used as a standard. Conjugated bilirubin and biliverdin in liver were measured as per the following procedure stated earlier in the literature with slight modifications.

[3] = tested on: diethylnitrosamine-induced hepatocarcinogenic rats; assay: Oxidative stress parameters (SOD, CAT, GSH, PC, MDA) in liver of DEN-induced HCC rats; settings: DEN+5-FU 10 mg/kg intraperitoneally, 15 days, mean ± SD, n = 6
Method: as §1, §2

[4] = tested on: diethylnitrosamine-induced hepatocarcinogenic rats; assay: Histopathological studies of liver (hematoxylin and eosin); settings: DEN+5-FU 10 mg/kg intraperitoneally; 40X
Method: as §1
Histopathological studies were also performed to find out the morphological changes of liver cells after M1 administration. Liver tissues from each group were assessed for their morphological changes using hematoxylin and eosin staining. The tissues were preserved in 10% formalin overnight. […]

[5] = tested on: diethylnitrosamine-induced hepatocarcinogenic rats; assay: ALT and AST in plasma of DEN-induced HCC rats; settings: DEN+5-FU 10 mg/kg intraperitoneally, 15 days, mean ± SD, n = 6
Method: as §1, §2

[6] = DEN+5-FU 10 mg/kg intraperitoneally, 15 days, mean ± SD, n = 6

O=c1[nH]cc(F)c(=O)[nH]1 [5-FU, 5-fluorouracil, reference compound]
Variation with respect to DEN: Acac (chemical shift 2.28) [1]: ↑ | Variation with respect to DEN: Ace (chemical shift 1.92) [1]: ↓ | Variation with respect to DEN: Acet (chemical shift 2.23) [1]: ↑ | Variation with respect to DEN: Ala (chemical shift 1.48) [1]: ↓ | Variation with respect to DEN: Betaine (chemical shift 3.265) [1]: ↓ | Variation with respect to DEN: Chol (chemical shift 3.22) [1]: ↓ | Variation with respect to DEN: Cr (chemical shift 3.03) [1]: ↑ | Variation with respect to DEN: Glucose (chemical shift 3.23–3.92, 4.63, 5.21) [1]: ↓ | Variation with respect to DEN: L1 (LDL) (chemical shift 0.83–0.87) [1]: ↓ | Variation with respect to DEN: L2 (VLDL) (chemical shift 0.87–0.90) [1]: ↑ | Variation with respect to DEN: L3 (LDL) (chemical shift 1.23–1.27) [1]: ↓ | Variation with respect to DEN: L4 (VLDL) (chemical shift 1.27–1.30) [1]: ↑ | Variation with respect to DEN: L6 (chemical shift 2.00) [1]: ↓ | Variation with respect to DEN: L8 (chemical shift 2.74) [1]: ↓ | Variation with respect to DEN: L9 (chemical shift 5.28) [1]: ↓ | Variation with respect to DEN: Lys (chemical shift 1.89) [1]: ↓ | Variation with respect to DEN: NAG (chemical shift 2.02) [1]: ↑ | Variation with respect to DEN: OAG (chemical shift 2.13) [1]: ↑ | Variation with respect to DEN: Pyr (chemical shift 2.37) [1]: ↓ | Variation with respect to DEN: Tyr (chemical shift 6.89) [1]: ↓ | bilirubin level ([2]; 5-FU-treated rats, text value (toxic ∼60 ng)): ~35 ng | Bilirubin [2, 6]: 34.70 ± 2.12 ng/μg of protein | Biliverdin [2, 6]: 18.39 ± 3.11 ng/μg of protein | CAT [3]: 9.30 ± 0.35 nM of H2O2/min/μg of protein | MDA [3]: 46.24 ± 0.26 nM/μg of protein | PC [3]: 0.35 ± 0.07 μM/μg of protein | Reduced GSH [3]: 7.30 ± 0.39 μM/μg of protein | SOD [3]: 6.99 ± 0.43 U/μg of protein | liver histopathology [4]: less ruptured and denatured cells (RC and DC) than toxic control | ALT [5]: 68.36 ± 5.32 U/L | AST [5]: 61.58 ± 4.17 U/L
